The values below come from paper PMC8796707 (ACS chemical biology, 2020).

Assay [1] relates to HEK293 cells expressing NLS-dL5**. Kind of assay: Cell permeability testing: labeling of nuclear localized FAP. It counts as cell-based. Conditions: flow cytometry, 100 nM dye, normalized to MG-nBu. (A flow cytometer gives signals particle by particle.)
The test system of another assay is dK-FRB/FKBP-HT. Kind of assay: Rapamycin chemical inducer of dimerization. It counts as biochemical. Conditions: 100 nM dK fusion, 200 nM HT fusion, 250 nM rapamycin, 10 nM DAPA.
Sequence of dK-FRB/FKBP-HT (P42345 2021-2113 limits assumed): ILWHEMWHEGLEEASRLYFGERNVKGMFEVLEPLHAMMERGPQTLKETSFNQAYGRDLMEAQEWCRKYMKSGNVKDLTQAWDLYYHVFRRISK
Sequence of dK-FRB/FKBP-HT (P62942 2-108 limits assumed, further chain): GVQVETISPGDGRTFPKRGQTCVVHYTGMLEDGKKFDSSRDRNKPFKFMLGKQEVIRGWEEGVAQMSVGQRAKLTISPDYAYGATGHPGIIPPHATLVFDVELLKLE
Another assay relates to dL5**. Kind of assay: Binding kinetics and affinity of dye to purified FAP. Conditions: SD, N = 4.
Assay [2] deals with HEK293 cells expressing dL5**-TM coplated with HT-TM-mCer3 cells.
For assay [3], the system named is HEK293 cells expressing HT-TM-mCer3 (HaloTag). It counts as cell-based. As to conditions: 500 nM dye, washed 6×, then 1 μM dL5**.
A further assay has as its system dK (dL5(E52K)). In kind it is binding.
The test system of the next assay is FRB-HT/dK-FKBP. Kind of assay: Rapamycin chemical inducer of dimerization. As to conditions: 100 nM dK fusion, 200 nM HT fusion, 250 nM rapamycin, 10 nM DAPA. In kind it is biochemical.
Sequence of FRB-HT/dK-FKBP (P42345 2012-2144 limits assumed): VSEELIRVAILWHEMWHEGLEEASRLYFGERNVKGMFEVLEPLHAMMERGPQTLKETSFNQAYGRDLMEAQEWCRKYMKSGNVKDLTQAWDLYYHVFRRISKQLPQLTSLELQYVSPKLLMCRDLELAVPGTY
Sequence of FRB-HT/dK-FKBP (P62942 2-108 limits assumed, further chain): as the sequence (P62942 2-108 limits assumed, further chain) above
For assay [4], the system named is HEK293 cells expressing dK-TM coplated with HT-TM-mCer3 cells. As to conditions: 10 nM DAPA dye.
The test system of assay [5] is HaloTag (HT) protein fusion. The assay can be described thus: Binding to purified HaloTag protein fusion, denaturing SDS-PAGE.

Where two headings read alike, the source gives them in different places.

For MG-PEG3500-HexCl [DAPA], the “NLS-dL5** labeling signal relative to MG-nBu signal” value in assay [1] stood at 5%. Further, the figures for the “increase in FAP–DAPA signal for rapamycin induced dimerization” value in the assay on dK-FRB/FKBP-HT and in the assay with FRB-HT/dK-FKBP were 100% and 50%, respectively. Further, the “off rate, koff, dL5**” value in the assay with dL5** is given as 1.23 ± 0.06 ×10^−4 s^−1. In addition, in the assay on dL5**, the “on rate, kon, dL5**” value is listed as 3.2 ± 0.2 ×10^6 M^−1 s^−1. The “ratio between contact and noncontact signal” value is 1.9 in assay [2] (100 nM DAPA dye); > 3.8 in [2] (DAPA dye between 0.5 nM and 10 nM). Also, the “labeling of HaloTag expressing cells” value in assay [3] is “specifically labeled mCer3 positive cells”. In addition, in the assay on dK (dL5(E52K)) (SD, N = 4), the “off rate, koff, dK” value was 53 ± 2 ×10^−4 s^−1. Besides, the “on rate, kon, dK” value in the assay on dK (dL5(E52K)) (SD, N = 4) was 0.39 ± 0.03 ×10^6 M^−1 s^−1. For the same substance, the “difference in FAP/DAPA KD between dL5** and dK” value in the assay with dK (dL5(E52K)) (dK versus dL5**) is on record as ~ 500 fold. For the same substance, the Kd – broadly, the constant that tells how readily two partners part at equilibrium – on dK (dL5(E52K)) (read-out: dissociation constant, KD, dK, KD = koff/kon, SD, N = 4) came to 13.7 ± 0.5 nM. Also, the “signal increase at the contact site versus the noncontact site” value in assay [4] is given as 40 fold. In addition, the “binding to purified HaloTag protein fusion” value in assay [5] is reported as “irreversibly bind”.
